Data as given in US20260325533A1, “CDK INHIBITOR COMPOUNDS” (ALEKSIA THERAPEUTICS, INC., priority 2023, published 2026).
pIC50: −log10 of the molar value. Read-outs that look alike come from different tables or passages of the source. Blank lines part the entries; values can stand above or below the molecule they belong to.

What was measured:
Assay type in all cases: biochemical
CDK2/CCNE1 = CDK2/CCNE1 (Homo sapiens, UniProt P24941); assay: CDK2 homogeneous time-resolved fluorescence (HTRF) kinase assay; conditions: CDK2/CCNE
Summary of the method: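 An HTRF format measures CDK2/CCNE1 (3 nM) phosphorylating a 4E-BP1 Thr37/46 peptide at high (1 mM) ATP. Reactions run one hour at 23 °C, then EDTA-quenched and probed with Eu-labelled phospho-specific antibody.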

CDK1/CCNB1 = CDK1/CCNB1 (Homo sapiens, UniProt P06493); assay: CDK1 homogeneous time-resolved fluorescence (HTRF) kinase assay; conditions: CDK1/CCNB
Summary of the method: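 Kinase activity is measured as Lance signal (665 nm, or 665/615 nm ratio) from europium-labelled anti-phospho-Thr37/46 antibody binding ULight-4E-BP1 peptide. Reactions contain 0.5 nM enzyme, 1 mM ATP, 1% DMSO and run 60 min at 23 °C before EDTA quench.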

CDK4/CCND3 = CDK4/CCND3 (Homo sapiens, UniProt P11802); assay: CDK4 homogeneous time-resolved fluorescence (HTRF) kinase assay; conditions: CDK4/CCND
Summary of the method: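 IC50s derive from Lance 665 nm or 665/615 nm signals in 11-point, half-log dose series (top 10 μM, 1% DMSO). The enzyme, 1.5 nM CDK4/CCND3, phosphorylates 50 nM ULight-4E-BP1 peptide with 1 mM ATP over 60 min at 23 °C.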

CDK6/CCND1 = CDK6/CCND1 (Homo sapiens, UniProt Q00534); assay: CDK6 homogeneous time-resolved fluorescence (HTRF) kinase assay; conditions: CDK6/CCND
Summary of the method: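 Assay conditions: HEPES buffer containing 10 mM MgCl2, 1 mM EGTA, 2 mM DTT, 0.01% Tween 20; 1 nM CDK6/CCND1, 50 nM peptide substrate, 1 mM ATP. Detection after 60 min reaction used 2 nM europium antibody with 340 nm excitation. Potency fitted from half-log series, 11 points.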

[1] = <25 nM, read-out: CDK2/CCNE IC50, <25 nM
[2] = >250 nM, read-out: CDK1/CCNB IC50 >250 nM
[3] = >250 nM, read-out: CDK4/CCND IC50, >250 nM
[4] = >250 nM, 1 mM ATP, read-out: CDK6/CCND IC50, >250 nM
[5] = >250 nM marked x, read-out: CDK1/CCNB IC50 >250 nM
[6] = x = IC50 25-250 nM, read-out: CDK2/CCNE IC50 (25-250 nM)
[7] = x = IC50 >250 nM, read-out: CDK1/CCNB IC50 (>250 nM column)
[8] = x = IC50 >250 nM, read-out: CDK4/CCND IC50 (>250 nM column)
[9] = x = IC50 >250 nM, read-out: CDK6/CCND IC50 (>250 nM column)
[10] = 25-250 nM marked x, read-out: CDK4/CCND IC50 25-250 nM
[11] = x = IC50 <25 nM, read-out: CDK2/CCNE IC50 (<25 nM)
[12] = 25-250 nM, read-out: CDK1/CCNB IC50, 25-250 nM
[13] = 25-250 nM, read-out: CDK4/CCND IC50, 25-250 nM
[14] = 25-250 nM, 1 mM ATP, read-out: CDK6/CCND IC50, 25-250 nM
[15] = <25 nM, read-out: CDK2/CCNE IC50 <25 nM
[16] = 25-250 nM marked x, read-out: CDK6/CCND IC50 25-250 nM
[17] = x = IC50 >250 nM, read-out: CDK2/CCNE IC50 (>250 nM column)
[18] = 25-250 nM marked x, read-out: CDK1/CCNB IC50 25-250 nM

Chain of CDK1/CCNB1 (P06493 whole entry): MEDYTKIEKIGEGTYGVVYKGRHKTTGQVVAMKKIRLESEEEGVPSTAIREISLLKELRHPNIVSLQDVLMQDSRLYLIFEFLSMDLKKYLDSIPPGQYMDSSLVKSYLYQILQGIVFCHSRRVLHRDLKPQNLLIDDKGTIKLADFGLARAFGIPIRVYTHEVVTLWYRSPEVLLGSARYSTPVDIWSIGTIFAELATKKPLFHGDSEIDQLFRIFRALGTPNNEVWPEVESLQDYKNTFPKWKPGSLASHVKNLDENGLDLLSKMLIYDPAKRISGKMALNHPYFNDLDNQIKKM
Chain of CDK1/CCNB1 (P14635 whole entry partner): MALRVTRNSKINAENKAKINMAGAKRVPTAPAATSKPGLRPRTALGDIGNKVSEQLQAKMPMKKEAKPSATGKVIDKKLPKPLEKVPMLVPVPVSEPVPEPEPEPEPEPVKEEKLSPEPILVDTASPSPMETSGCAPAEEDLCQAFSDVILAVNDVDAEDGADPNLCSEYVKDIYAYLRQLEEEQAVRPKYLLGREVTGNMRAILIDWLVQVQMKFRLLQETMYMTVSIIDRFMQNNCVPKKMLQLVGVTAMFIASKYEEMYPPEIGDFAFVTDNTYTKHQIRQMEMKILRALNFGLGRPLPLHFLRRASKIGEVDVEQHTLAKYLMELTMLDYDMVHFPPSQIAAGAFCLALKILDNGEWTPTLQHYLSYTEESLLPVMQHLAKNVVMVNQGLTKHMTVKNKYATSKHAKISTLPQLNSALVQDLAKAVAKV
Chain of CDK6/CCND1 (Q00534 whole entry): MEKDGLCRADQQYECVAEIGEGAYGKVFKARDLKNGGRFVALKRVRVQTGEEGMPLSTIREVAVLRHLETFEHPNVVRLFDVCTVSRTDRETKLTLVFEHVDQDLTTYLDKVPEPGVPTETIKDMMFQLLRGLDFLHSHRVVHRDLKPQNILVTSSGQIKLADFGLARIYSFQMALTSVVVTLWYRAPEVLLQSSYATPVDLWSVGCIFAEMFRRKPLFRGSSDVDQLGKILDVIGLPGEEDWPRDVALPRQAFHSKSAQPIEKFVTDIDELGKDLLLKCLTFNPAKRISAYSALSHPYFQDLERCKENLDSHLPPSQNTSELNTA
Chain of CDK6/CCND1 (P24385 whole entry partner): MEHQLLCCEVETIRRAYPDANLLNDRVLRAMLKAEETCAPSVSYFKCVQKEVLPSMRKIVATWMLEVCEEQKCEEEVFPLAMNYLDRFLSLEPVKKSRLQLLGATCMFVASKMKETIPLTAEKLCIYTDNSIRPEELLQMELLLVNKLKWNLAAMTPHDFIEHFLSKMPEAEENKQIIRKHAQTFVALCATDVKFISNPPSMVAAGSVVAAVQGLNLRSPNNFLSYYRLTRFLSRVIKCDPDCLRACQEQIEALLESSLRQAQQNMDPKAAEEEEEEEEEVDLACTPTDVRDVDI
Chain of CDK4/CCND3 (P11802 whole entry): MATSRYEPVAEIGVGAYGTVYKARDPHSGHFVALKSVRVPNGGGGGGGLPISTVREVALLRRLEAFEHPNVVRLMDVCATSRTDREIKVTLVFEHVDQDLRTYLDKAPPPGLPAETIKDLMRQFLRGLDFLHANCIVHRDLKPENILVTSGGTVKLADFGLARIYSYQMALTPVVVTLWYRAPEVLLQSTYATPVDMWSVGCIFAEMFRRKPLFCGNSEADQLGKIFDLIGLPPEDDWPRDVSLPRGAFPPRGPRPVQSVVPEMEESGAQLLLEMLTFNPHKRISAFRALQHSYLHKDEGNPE
Chain of CDK4/CCND3 (P30281 whole entry partner): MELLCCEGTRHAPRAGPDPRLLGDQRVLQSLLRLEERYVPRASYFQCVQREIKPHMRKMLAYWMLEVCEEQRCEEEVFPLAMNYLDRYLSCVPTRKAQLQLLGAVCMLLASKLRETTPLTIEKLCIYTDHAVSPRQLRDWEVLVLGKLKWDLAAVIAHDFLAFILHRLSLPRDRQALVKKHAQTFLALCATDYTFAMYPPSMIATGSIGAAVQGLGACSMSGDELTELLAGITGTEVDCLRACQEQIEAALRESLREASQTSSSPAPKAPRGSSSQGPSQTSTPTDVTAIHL

- pIC50 (CDK2/CCNE1; [1]): > 7.60
- pIC50 (CDK1/CCNB1; [2]): < 6.60
- pIC50 (CDK4/CCND3; [3]): < 6.60
- pIC50 (CDK6/CCND1; [4]): < 6.60
SMILES: COc1ccnc(NS(=O)(=O)c2ccc(Nc3cc4c(-c5ccc6c(cnn6CC(O)(C(F)(F)F)C(F)(F)F)c5C)nccc4cn3)cc2)n1 [Ex 737, N-(4-methoxypyrimidin-2-yl)-4-((5-(4-methyl-1-(3,3,3-trifluoro-2-hydroxy-2-(trifluoromethyl)propyl)-1H-indazol-5-yl)-2,6-naphthyridin-3-yl)amino)benzenesulfonamide]

- pIC50 (CDK2/CCNE1; 25-250 nM, read-out: CDK2/CCNE IC50, 25-250 nM): 6.60 to 7.60
- pIC50 (CDK1/CCNB1; [2]): < 6.60
- pIC50 (CDK4/CCND3; [3]): < 6.60
- pIC50 (CDK6/CCND1; [4]): < 6.60
SMILES: COc1ccccc1NS(=O)(=O)c1ccc(Nc2cc3c(-c4ccc5c(cnn5CC(O)(C(F)(F)F)C(F)(F)F)c4C)nccc3cn2)cc1 [Ex 714, N-(2-methoxyphenyl)-4-((5-(4-methyl-1-(3,3,3-trifluoro-2-hydroxy-2-(trifluoromethyl)propyl)-1H-indazol-5-yl)-2,6-naphthyridin-3-yl)amino)benzenesulfonamide]

- pIC50 (CDK2/CCNE1; >250 nM marked x, read-out: CDK2/CCNE IC50 >250 nM): < 6.60
- pIC50 (CDK1/CCNB1; [5]): < 6.60
- pIC50 (CDK4/CCND3; >250 nM marked x, read-out: CDK4/CCND IC50 >250 nM): < 6.60
- pIC50 (CDK6/CCND1; >250 nM marked x, read-out: CDK6/CCND IC50 >250 nM): < 6.60
SMILES: CCC1(CC)C(=O)Nc2cc(C#Cc3nccc4cnc(Nc5ccc(S(=N)(=O)C6CC(F)(F)C6)cc5F)cc34)ccc21 (single isomer, unassigned) [Ex 301, 6-((7-((4-(3,3-difluorocyclobutane-1-sulfonimidoyl)-2-fluorophenyl)amino)-2,6-naphthyridin-1-yl)ethynyl)-3,3-diethylindolin-2-one]

- pIC50 (CDK2/CCNE1; [6]): 6.60 to 7.60
- pIC50 (CDK1/CCNB1; [7]): < 6.60
- pIC50 (CDK4/CCND3; [8]): < 6.60
- pIC50 (CDK6/CCND1; [9]): < 6.60
SMILES: CS(=O)(=O)c1ccc(Nc2cc3c(C#Cc4ccc(C#N)cc4F)nccc3cn2)cc1 [Ex 554, 3-fluoro-4-((7-((4-(methylsulfonyl)phenyl)amino)-2,6-naphthyridin-1-yl)ethynyl)benzonitrile]

- pIC50 (CDK2/CCNE1; 25-250 nM marked x, read-out: CDK2/CCNE IC50 25-250 nM): 6.60 to 7.60
- pIC50 (CDK1/CCNB1; [5]): < 6.60
- pIC50 (CDK4/CCND3; [10]): 6.60 to 7.60
- pIC50 (CDK6/CCND1; <25 nM, read-out: CDK6/CCND IC50 <25 nM): > 7.60
SMILES: CN1CCC(C2CCN(c3nccc4cnc(NC5CCN(S(C)(=O)=O)CC5)cc34)CC2)CC1 [Ex 28, 5-(1'-methyl-[4,4'-bipiperidin]-1-yl)-N-(1-(methylsulfonyl)piperidin-4-yl)-2,6-naphthyridin-3-amine]

- pIC50 (CDK2/CCNE1; [6]): 6.60 to 7.60
- pIC50 (CDK1/CCNB1; [7]): < 6.60
- pIC50 (CDK4/CCND3; [8]): < 6.60
- pIC50 (CDK6/CCND1; [9]): < 6.60
SMILES: CC(C)(O)c1cc2ccc(C#Cc3nccc4cnc(Nc5ccc(S(C)(=O)=O)cc5)cc34)cc2[nH]1 [Example 590, 2-(6-((7-((4-(methylsulfonyl)phenyl)amino)-2,6-naphthyridin-1-yl)ethynyl)-1H-indol-2-yl)propan-2-ol]

- pIC50 (CDK2/CCNE1; [11]): > 7.60
- pIC50 (CDK1/CCNB1; [7]): < 6.60
- pIC50 (CDK4/CCND3; [8]): < 6.60
- pIC50 (CDK6/CCND1; [9]): < 6.60
SMILES: Cc1cc(S(C)(=O)=O)ccc1Nc1cc2c(C#Cc3ccc4c(c3)NC(=O)C43CCC3)nccc2cn1 [Ex 381, 6'-((7-((2-methyl-4-(methylsulfonyl)phenyl)amino)-2,6-naphthyridin-1-yl)ethynyl)spiro[cyclobutane-1,3'-indolin]-2'-one]

- pIC50 (CDK2/CCNE1; [1]): > 7.60
- pIC50 (CDK1/CCNB1; [12]): 6.60 to 7.60
- pIC50 (CDK4/CCND3; [13]): 6.60 to 7.60
- pIC50 (CDK6/CCND1; [14]): 6.60 to 7.60
SMILES: Cc1c(-c2nccc3cnc(Nc4ccc(NS(=O)(=O)c5ccn(C)n5)cc4)cc23)ccc2c1cnn2CC(C)(C)O [Ex 832, N-(4-((5-(1-(2-hydroxy-2-methylpropyl)-4-methyl-1H-indazol-5-yl)-2,6-naphthyridin-3-yl)amino)phenyl)-1-methyl-1H-pyrazole-3-sulfonamide]

- pIC50 (CDK2/CCNE1; [1]): > 7.60
- pIC50 (CDK1/CCNB1; [12]): 6.60 to 7.60
- pIC50 (CDK4/CCND3; [13]): 6.60 to 7.60
- pIC50 (CDK6/CCND1; [14]): 6.60 to 7.60
SMILES: Cc1c(-c2nccc3cnc(Nc4ccc(NS(=O)(=O)c5ccoc5)cc4)cc23)ccc2c1cnn2CC(C)(C)O [Ex 825, N-(4-((5-(1-(2-hydroxy-2-methylpropyl)-4-methyl-1H-indazol-5-yl)-2,6-naphthyridin-3-yl)amino)phenyl)furan-3-sulfonamide]

- pIC50 (CDK2/CCNE1; [15]): > 7.60
- pIC50 (CDK1/CCNB1; [5]): < 6.60
- pIC50 (CDK4/CCND3; [10]): 6.60 to 7.60
- pIC50 (CDK6/CCND1; [16]): 6.60 to 7.60
SMILES: CS(=O)(=O)N1CCC(Nc2cc3c(-c4ccccc4OC(F)(F)F)nccc3cn2)CC1 [Ex 81, N-(1-(methylsulfonyl)piperidin-4-yl)-5-(2-(trifluoromethoxy)phenyl)-2,6-naphthyridin-3-amine]

- pIC50 (CDK2/CCNE1; [17]): < 6.60
- pIC50 (CDK1/CCNB1; [7]): < 6.60
- pIC50 (CDK4/CCND3; [8]): < 6.60
- pIC50 (CDK6/CCND1; [9]): < 6.60
SMILES: CS(=O)(=O)c1ccc(Nc2cc3c(C#Cc4nccc5[nH]ccc45)nccc3cn2)cc1 [Ex 516, 5-((1H-pyrrolo[3,2-c]pyridin-4-yl)ethynyl)-N-(4-(methylsulfonyl)phenyl)-2,6-naphthyridin-3-amine]

- pIC50 (CDK2/CCNE1; [15]): > 7.60
- pIC50 (CDK1/CCNB1; [18]): 6.60 to 7.60
- pIC50 (CDK4/CCND3; [10]): 6.60 to 7.60
- pIC50 (CDK6/CCND1; [16]): 6.60 to 7.60
SMILES: CS(=O)(=O)c1ccc(Nc2cc3c(C4=NCCS4)nccc3cn2)cc1 [Ex 139, 5-(4,5-dihydrothiazol-2-yl)-N-(4-(methylsulfonyl)phenyl)-2,6-naphthyridin-3-amine]

- pIC50 (CDK2/CCNE1; [17]): < 6.60
- pIC50 (CDK1/CCNB1; [7]): < 6.60
- pIC50 (CDK4/CCND3; [8]): < 6.60
- pIC50 (CDK6/CCND1; [9]): < 6.60
SMILES: COC(=O)c1ccc2c(C#Cc3nccc4cnc(Nc5ccc(S(C)(=O)=O)cc5)cc34)n[nH]c2c1 [Ex 498, methyl 3-((7-((4-(methylsulfonyl)phenyl)amino)-2,6-naphthyridin-1-yl)ethynyl)-1H-indazole-6-carboxylate]

- pIC50 (CDK2/CCNE1; [15]): > 7.60
- pIC50 (CDK1/CCNB1; [18]): 6.60 to 7.60
- pIC50 (CDK4/CCND3; [10]): 6.60 to 7.60
- pIC50 (CDK6/CCND1; [16]): 6.60 to 7.60
SMILES: CC(C)S(=N)(=O)c1ccc(Nc2cc3c(C#Cc4ccc5c(c4)NC(=O)C5(C)CCO)nccc3cn2)cc1 (single isomer, unassigned) [Example 271, 3-(2-hydroxyethyl)-3-methyl-6-((7-((4-(propan-2-ylsulfonimidoyl)phenyl)amino)-2,6-naphthyridin-1-yl)ethynyl)indolin-2-one]

- pIC50 (CDK2/CCNE1; [1]): > 7.60
- pIC50 (CDK1/CCNB1; [2]): < 6.60
- pIC50 (CDK4/CCND3; [3]): < 6.60
- pIC50 (CDK6/CCND1; [4]): < 6.60
SMILES: COc1cnc(NS(=O)(=O)c2ccc(Nc3cc4c(-c5ccc6c(cnn6CC(O)(C(F)(F)F)C(F)(F)F)c5C)nccc4cn3)cc2)cc1N1CCOCC1 [Example 700, N-(5-methoxy-4-morpholinopyridin-2-yl)-4-((5-(4-methyl-1-(3,3,3-trifluoro-2-hydroxy-2-(trifluoromethyl)propyl)-1H-indazol-5-yl)-2,6-naphthyridin-3-yl)amino)benzenesulfonamide]

- pIC50 (CDK2/CCNE1; [11]): > 7.60
- pIC50 (CDK1/CCNB1; [7]): < 6.60
- pIC50 (CDK4/CCND3; [8]): < 6.60
- pIC50 (CDK6/CCND1; [9]): < 6.60
SMILES: Nc1ncccc1C#Cc1nccc2cnc(Nc3ccc(S(=O)(=O)Nc4nccc(N5CCOCC5)n4)cc3)cc12 [Example 464, 4-((5-((2-aminopyridin-3-yl)ethynyl)-2,6-naphthyridin-3-yl)amino)-N-(4-morpholinopyrimidin-2-yl)benzenesulfonamide]

- pIC50 (CDK2/CCNE1; [11]): > 7.60
- pIC50 (CDK1/CCNB1; [7]): < 6.60
- pIC50 (CDK4/CCND3; x = IC50 25-250 nM, read-out: CDK4/CCND IC50 (25-250 nM)): 6.60 to 7.60
- pIC50 (CDK6/CCND1; x = IC50 25-250 nM, read-out: CDK6/CCND IC50 (25-250 nM)): 6.60 to 7.60
SMILES: CC(O)CN1CCc2cc(-c3nccc4cnc(Nc5ccc(S(C)(=O)=O)cc5)cc34)ccc2C1 (racemic) [Ex 628, 1-(6-(7-((4-(methylsulfonyl)phenyl)amino)-2,6-naphthyridin-1-yl)-3,4-dihydroisoquinolin-2(1H)-yl)propan-2-ol]
